Reference: US20060281766A1 (priority 2003, published 2006)
Like-named read-outs stand apart in the source and are kept apart here.

System: Phytophthora infestans
Type: in vivo
Details: individual active compound, tomato leaves, infected next day, assessed after 6 days

| Structure (SMILES) | Efficacy in % of the untreated control (0.25 ppm in the spray liquor) [%] | Efficacy in % of the untreated control (16 ppm in the spray liquor) [%] | Efficacy in % of the untreated control (1 ppm in the spray liquor) [%] |
| --- | --- | --- | --- |
| CC1CCN(c2c(-c3c(F)cc(F)cc3F)c(Cl)nc3ncnn23)CC1 [II, 5-chloro-7-(4-methylpiperidin-1-yl)-6-(2,4,6-trifluorophenyl)-[1,2,4]tri-azolo[1,5-a]pyrimidine] | 0 | 0 | – |
| CC1CCN(c2c(-c3c(F)cccc3Cl)c(Cl)nc3ncnn23)CC1 [A] | 0 | 0 | – |
| CNC(=O)/C(=N/OC)c1ccccc1COc1cc(C)ccc1C [I, dimoxystrobin] | 0 | – | 56 |
| C[C@H](Nc1c(-c2c(F)cc(F)cc2F)c(Cl)nc2ncnn12)C(F)(F)F [B] | 0 | 0 | – |
